Test results taken from US20250019377A1 (JACOBIO PHARMACEUTICALS CO., LTD, priority 2021, published 2025).
pIC50: −log10 of the molar value.

What was measured:
K-Ras G12V [1] = biological target: T1, K-Ras G12V (Homo sapiens, UniProt P01116, G12V); assay: SOS1 catalyzed nucleotide exchange assay (GDP form K-Ras), K-Ras G12V; conditions: read-out: K-Ras G12V GDP Biochemical Activity (IC50)
K-Ras WT = K-Ras WT (Homo sapiens, UniProt P01116); assay: SOS1 catalyzed nucleotide exchange assay (GDP form K-Ras), K-Ras WT; conditions: read-out: K-Ras WT GDP Biochemical Activity (IC50)
K-Ras WT, sequence (P01116 1-169 isoform P01116-2): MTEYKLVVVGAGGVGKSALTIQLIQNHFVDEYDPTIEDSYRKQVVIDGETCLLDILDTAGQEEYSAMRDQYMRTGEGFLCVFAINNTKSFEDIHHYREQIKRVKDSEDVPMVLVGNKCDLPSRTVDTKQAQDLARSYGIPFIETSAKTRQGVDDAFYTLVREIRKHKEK

[2] = system: AsPC-1 cells (K-Ras G12D); assay: 2D cell growth inhibition assay, AsPC-1; assay type: cell-based; conditions: Homo sapiens, ASPC1, 144 h, AsPC-1, K-Ras G12D, 6 days, absolute IC50
[3] = system: p-ERK in SW620 cells (K-Ras G12V); assay: Phospho-ERK1/2(THR202/TYR204) HTRF assay, SW620; assay type: cell-based; conditions: Homo sapiens, SW-620, 2 h, 2 hours incubation
K-Ras G12V [4] = biological target: T1, K-Ras G12V; assay: biochemical
SW620 cells (K-Ras G12V) = assay: 2D cell growth inhibition assay, SW620; assay type: cell-based; conditions: Homo sapiens, SW-620, 144 h, 6 days, absolute IC50
[5] = system: p-ERK in AGS cells (K-Ras G12D); assay: Phospho-ERK1/2(THR202/TYR204) HTRF assay, AGS; assay type: cell-based; conditions: Homo sapiens, 2 h, 2 hours incubation
AGS cells (K-Ras G12D) = assay: 2D cell growth inhibition assay, AGS; assay type: cell-based; conditions: Homo sapiens, 144 h, 6 days, absolute IC50

T1 sequence (P01116 1-169 isoform P01116-2 G12V): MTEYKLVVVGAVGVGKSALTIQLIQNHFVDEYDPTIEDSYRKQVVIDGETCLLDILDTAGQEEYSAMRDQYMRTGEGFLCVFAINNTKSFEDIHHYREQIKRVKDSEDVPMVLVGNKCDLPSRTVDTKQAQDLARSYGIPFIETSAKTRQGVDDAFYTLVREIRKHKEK

Row | Structure (SMILES) | pIC50 (K-Ras G12V [1]) | pIC50 (K-Ras WT) | IC50 [2] | IC50 [3] | pIC50 (K-Ras G12V [4]) | IC50 (SW620 cells (K-Ras G12V)) | IC50 [5] | IC50 (AGS cells (K-Ras G12D))
1 | C#Cc1c(F)ccc2cc(O)cc(-c3ncc4c(N5CCOC/C(=C/C)C5)nc(OC[C@@]56CCCN5C[C@H](F)C6)nc4c3F)c12 [Compound 124, 4-(4-((E)-6-ethylidene-1,4-oxazepan-4-yl)-8-fluoro-2-(((2R,7aS)-2-fluorotetrahydro-1H-pyrrolizin-7a(5H)-yl)methoxy)pyrido [4,3-d]pyrimidin-7-yl)-5-ethynyl-6-fluoro-naphthalen-2-ol] | 8.59 | 8.30 | 784 nM | 21.8 nM | 6.09 | 45.7 nM | 34.2 nM | 80.8 nM
2 | C#Cc1c(F)ccc2cc(O)cc(-c3ncc4c(N5CCOCC(N(C)C)C5)nc(OC[C@@]56CCCN5C[C@H](F)C6)nc4c3F)c12 (stereo partly drawn) [Compound 26, 4-(4-(6-(dimethylamino)-1,4-oxazepan-4-yl)-8-fluoro-2-(((2R,7aS)-2-fluorotetrahydro-1H-pyrrolizin-7a(5H)-yl)methoxy)pyrido[4,3-d]pyrimidin-7-yl)-5-ethynyl-6-fluoronaphthalen-2-ol] | 8.24 | 8.33 | – | – | 5.38 | – | – | –
3 | C#Cc1c(F)ccc2cc(O)cc(-c3nc(C(F)F)c4c(N5CCCOCC5)nc(OC[C@@]56CCCN5C[C@H](F)C6)nc4c3F)c12 [Compound 34, 4-(5-(difluoromethyl)-8-fluoro-2-(((2R,7aS)-2-fluorotetrahydro-1H-pyrrolizin-7a(5H)-yl)methoxy)-4-(1,4-oxazepan-4-yl)pyrido[4,3-d]pyrimidin-7-yl)-5-ethynyl-6-fluoronaphthalen-2-ol trifluoroacetic acid] | 8.67 | – | 323 nM | 40 nM | 6.32 | 205 nM | 19.4 nM | 75.4 nM
4 | C#Cc1c(F)ccc2cc(O)cc(-c3ncc4c(N5CCCOC6CC65)nc(OC[C@@H]5CCCN5C)nc4c3F)c12 (stereo partly drawn) [Compound 113, 4-(4-(2-oxa-6-azabicyclo[5.1.0]octan-6-yl)-8-fluoro-2-(((S)-1-methylpyrrolidin-2-yl)methoxy)pyrido[4,3-d]pyrimidin-7-yl)-5-ethynyl-6-fluoronaphthalen-2-ol] | 8.78 | – | 121 nM | 10.4 nM | 7.54 | 22.4 nM | 1.83 nM | 9.76 nM
5 | C#Cc1c(F)ccc2cc(O)cc(-c3nc(CO)c4c(N5CCCOCC5)nc(OC[C@@]56CCCN5C[C@H](F)C6)nc4c3F)c12 [Compound 36, 5-ethynyl-6-fluoro-4-(8-fluoro-2-(((2R,7aS)-2-fluorotetrahydro-1H-pyrrolizin-7a(5H)-yl)methoxy)-5-(hydroxymethyl)-4-(1,4-oxazepan-4-yl)pyrido[4,3-d]pyrimidin-7-yl)naphthalen-2-ol trifluoroacetic acid] | 8.10 | – | 734 nM | 48.8 nM | 6.57 | 112 nM | 12.4 nM | 37.3 nM
6 | Oc1cc(-c2ncc3c(N4CCCOCC4)nc(OC[C@@]45CCCN4C[C@H](F)C5)nc3c2F)c2c(F)c(F)ccc2c1 [Compound 40, 5,6-difluoro-4-(8-fluoro-2-(((2R,7aS)-2-fluorotetrahydro-1H-pyrrolizin-7a(5H)-yl)methoxy)-4-(1,4-oxazepan-4-yl)pyrido[4,3-d]pyrimidin-7-yl)naphthalen-2-ol trifluoroacetic acid] | 8.71 | – | 91.3 nM | 14.1 nM | 6.91 | 24.8 nM | 5.68 nM | 9.24 nM
7 | C#Cc1c(F)ccc2cc(O)cc(-c3ncc4c(N5CCCO[C@@H]6C[C@@H]65)nc(OCC5(CN6CCOCC6)CC5)nc4c3F)c12 (single isomer, unassigned) [Compound 28B] | 8.64 | – | 18.2 nM | 3.36 nM | 7.53 | 6.63 nM | 1.33 nM | 2.23 nM
8 | C#Cc1c(F)ccc2cc(O)cc(-c3ncc4c(N5CCCOCC5)nc(OCC56CCCN5CC(N(C)C)C6)nc4c3F)c12 (stereo not drawn) [Compound 83] | 8.51 | 8.09 | – | – | 6.46 | – | – | –
9 | C#Cc1c(F)ccc2cc(O)cc(-c3ncc4c(N5CC(F)(F)COCC5C)nc(OC[C@@]56CCCN5C[C@H](F)C6)nc4c3F)c12 (stereo partly drawn) [Compound 105, 4-(4-(6,6-difluoro-3-methyl-1,4-oxazepan-4-yl)-8-fluoro-2-(((2R,7aS)-2-fluorotetra-hydro-1H-pyrrolizin-7a(5H)-yl)methoxy)pyrido[4,3-d]pyrimidin-7-yl)-5-ethynyl-6-fluoronaphthalen-2-ol] | 8.68 | – | 326 nM | 34.8 nM | 6.42 | 104 nM | 23 nM | 53.6 nM
10 | C#Cc1c(F)ccc2cc(O)cc(-c3ncc4c(N5CCOCC(F)(F)C5)nc(OC[C@@]56CCCN5C[C@H](F)C6)nc4c3F)c12 [Compound 18, 4-(4-(6,6-difluoro-1,4-oxazepan-4-yl)-8-fluoro-2-(((2R,7aS)-2-fluorotetrahydro-1H-pyrrolizin-7a(5H)-yl)methoxy)pyrido[4,3-d]pyrimidin-7-yl)-5-ethynyl-6-fluoronaphthalen-2-ol trifluoroacetic acid] | 8.85 | – | 95.7 nM | 2.1 nM | 6.97 | 5.68 nM | 5.99 nM | 7.96 nM
11 | C#Cc1c(F)ccc2cc(O)cc(-c3ncc4c(N5[C@H]6COC[C@@H](C)[C@@H]5C6)nc(OC[C@@]56CCCN5C[C@H](F)C6)nc4c3F)c12 [Compound 111, 5-ethynyl-6-fluoro-4-(8-fluoro-2-(((2R,7aS)-2-fluorotetrahydro-1H-pyrrolizin-7a(5H)-yl)methoxy)-4-((1R,5S,6S)-5-methyl-3-oxa-7-azabicyclo[4.1.1]octan-7-yl)pyrido [4,3-d]pyrimidin-7-yl)naphthalen-2-ol] | 8.38 | – | 390 nM | 84 nM | < 6.00 | 73.8 nM | 17.4 nM | 86 nM

Results, then the compound that gave them:

Row | pIC50 (K-Ras G12V [1]) | pIC50 (K-Ras WT) | IC50 [2] | IC50 [3] | pIC50 (K-Ras G12V [4]) | IC50 (SW620 cells (K-Ras G12V)) | IC50 [5] | IC50 (AGS cells (K-Ras G12D)) | Structure (SMILES)
12 | 8.24 | – | 88.5 nM | 11.9 nM | 7.66 | 9.2 nM | 1.42 nM | 5.63 nM | C#Cc1c(F)ccc2cc(O)cc(-c3nc(C4CC4)c4c(N5CCCOCC5)nc(OC[C@@]56CCCN5C[C@H](F)C6)nc4c3F)c12 [Compound 35, 4-(5-cyclopropyl-8-fluoro-2-(((2R,7aS)-2-fluorotetrahydro-1H-pyrrolizin-7a(5H)-yl)methoxy)-4-(1,4-oxazepan-4-yl)pyrido[4,3-d]pyrimidin-7-yl)-5-ethynyl-6-fluoronaphthalen-2-ol trifluoroacetic acid]
13 | 8.36 | – | 106 nM | 40.9 nM | 6.82 | 41.6 nM | 17.7 nM | 51.7 nM | C#Cc1c(F)ccc2cc(O)cc(-c3nc(SC)c4c(N5CCCOCC5)nc(OC[C@@]56CCCN5C[C@H](F)C6)nc4c3F)c12 [Compound 47, 5-ethynyl-6-fluoro-4-(8-fluoro-2-(((2R,7aS)-2-fluorotetrahydro-1H-pyrrolizin-7a(5H)-yl)methoxy)-5-(methylthio)-4-(1,4-oxazepan-4-yl)pyrido[4,3-d]pyrimidin-7-yl)naphthalen-2-ol trifluoroacetic acid]
14 | 8.73 | – | 40.4 nM | 2.43 nM | 7.78 | 5.66 nM | 9.66 nM | 8.11 nM | C#Cc1c(F)ccc2cc(O)cc(-c3nc(OC(C)C)c4c(N5CCCOCC5)nc(OC[C@@]56CCCN5C[C@H](F)C6)nc4c3F)c12 [Compound 52, 5-ethynyl-6-fluoro-4-(8-fluoro-2-(((2R,7aS)-2-fluorotetrahydro-1H-pyrrolizin-7a(5H)-yl)methoxy)-5-isopropoxy-4-(1,4-oxazepan-4-yl)pyrido[4,3-d]pyrimidin-7-yl)naphthalen-2-ol trifluoroacetic acid]
15 | 8.77 | – | 74.2 nM | 8.5 nM | 7.66 | 10.3 nM | 2.27 nM | 9.66 nM | C#Cc1c(F)ccc2cc(O)cc(-c3nc(OC4CC4)c4c(N5CCCOCC5)nc(OC[C@@]56CCCN5C[C@H](F)C6)nc4c3F)c12 [Compound 51, 4-(5-cyclopropoxy-8-fluoro-2-(((2R,7aS)-2-fluorotetrahydro-1H-pyrrolizin-7a(5H)-yl)methoxy)-4-(1,4-oxazepan-4-yl)pyrido[4,3-d]pyrimidin-7-yl)-5-ethynyl-6-fluoronaphthalen-2-ol trifluoroacetic acid]
16 | 8.52 | – | 320 nM | 34.8 nM | 6.85 | 91 nM | 5.47 nM | 25.4 nM | C#Cc1c(F)ccc2cc(O)cc(-c3nc(C)c4c(N5CCCOCC5)nc(OC[C@@]56CCCN5C[C@H](F)C6)nc4c3F)c12 [Compound 121, 5-ethynyl-6-fluoro-4-(8-fluoro-2-(((2R,7aS)-2-fluorotetrahydro-1H-pyrrolizin-7a(5H)-yl)methoxy)-5-methyl-4-(1,4-oxazepan-4-yl)pyrido[4,3-d]pyrimidin-7-yl) naphthalen-2-ol]
